This note sets out measurements from patent US5849753A, “Pyridyl imidazole derivatives and processes for the preparation thereof” (Korea Research Institute of Chemical Technology, priority 1994, dated 1998).

One assay concerns angiotensin II receptor. Description: Angiotensin II Receptor Binding Assay ([3H] angiotensin II binding inhibition). Conditions: [3H] angiotensin II ligand; 60 minutes, 25° C.; test concentration not given. How it is done:
In accordance with the procedure disclosed in Chiu, A. T. et al., Eur. J. Pharm., 157, 13(1981), a ligand marked with a radioisotope was reacted with an angiotensin II receptor and the reactant was filtered with a glass fiber to remove unreacted ligand. After washing the filter, the amount of the remaining isotope was measured to determine the binding activity of the ligand, as described below in detail.
Sprague-Dawley rats and Wistar rats of 250 to 350 g(from The Korea Research Institute of Chemical Technology) were tested and the test procedures were carried out at 4° C., unless otherwise specified. Adrenal gland was separated from the Sprague-Dawley rats(liver, in the case of Wistar rats) into cortex and medulla. The separated adrenal cortex and medulla were washed with a sucrose buffer solution (0.2M sucrose, 1 mM EDTA, 10 mM Tris, pH 7.2) and homogenized in the same buffer solution by using a Teflon pestle and a Brinkmann homogenizer. The homogenates were centrifuged at 3,000 Xg for 10 minutes to remove precipitates and further centrifuged at 12,000 Xg for 13 minutes. The final supernatants were centrifuged at 102,000 Xg for 1 hour to obtain precipitates, which were washed with a Tris buffer solution(50 mM Tris, 5 mM MgCl2, pH 7.2) and re-centrifuged at 102,000 Xg for 1 hour. The resulting precipitates were immediately processed at the following step or stored at -70° C.
The precipitates were suspended in a Tris buffer solution. The amount of protein was determined by using a Bio-Rad DC protein analyzing kit and the protein concentration was adjusted to the amounts of: 0.2 to 0.3 mg/ml(Sprague-Dawley rat: adrenal cortex), 1.5 to 2.0 mg/ml(Sprague-Dawleyrat: adrenal medulla), and 1.5 to 2.0 mg/ml(Wistar rat: liver). To the suspension, bovine serum albumin(BSA) was added to a concentration of 0.25 wt % and the resultant was immediately processed at the following step or stored at -70° C.
(ii) Measurement of angiotensin II receptor binding capacity 50 μl(based on ligand) of [^3 H] angiotensin II(NEN, NET-446) and 10 μl of each of the test compounds with various concentrations were added to the buffer solution(50 mM Irris(pH 7.2), 5 mM MgCl2, 0.25% BSA) to adjust the final volume to be 0.5 ml. 100 μl of the receptor suspension was added thereto and the resulting solution was reacted for 60 minutes while stirring in a water bath at 25° C. 3 ml of cold buffer solution for analysis was added to cease the reaction. The isotope which was bound to the receptor was isolated from the resultant by using Brandel Cell Harvester System with Whatman glass fiber GF/C. After washing the filter, the radioactivity of the filter was determined by using a liquid scintillation counter. Binding inhibition(%) of the test compound was calculated as follows:
Binding Inhibition(%)=[{(T--B)-(S--B)}/(T--B)]×100
wherein T is cpm of the reaction product untreated with the test compound, S is cpm of the reaction product treated with the test compound, and B is cpm of blank test.

Assay [1] has as its system renal hypertensive rat. Description: Blood pressure lowering effect in renal hypertension (renal hypertensive rats, intravenous or oral). Type of assay: in vivo, male Sprague-Dawley rats. As to conditions: 3 mg, read-out: Maxium Blood Pressure Lowering Effect(%). The source says:
(§1) To induce renal hypertension, left renal artery of 4 week-old male Sprague-Dawley rats(from The Korea Research Institute of Chemical Technology) was ligated. The rats were anesthetized with ether and the surgical region on the left abdomen of the rat was shaved, disinfected, and then incised about 1 cm vertically. The renal artery near abdominal aorta was isolated carefully from surrounding tissues and veins, and then ligated completely with a suture(4/0 sterile surgical silk). The muscular strata and skin of the surgical area were sutured with a suture(4/0 sterile surgical silk). The surgical region was disinfected to prevent infection and thereafter, 200 to 250 mg/Kg/day of cephazolin sodium was injected intramuscularly for 2 days. 6 to 8 days after the ligation, rats showing systolic pressure of more than 180 mmHg were selected for renal hypertension test. The blood pressure was determined by a tail-cuff method from the tail under unanesthetized condition(Gerold, M. et al., Arzneimittrel-Forsch, 18, 1285(1968)).
(§2) Each of the compounds to be tested was administered intravenously or orally into the renal hypertensive rat. The blood pressure of the rats was determined by direct method(Chiu, A. T. et al., J. Pharmacol. Exp. Ther. 250, 867(1989)) using a catheter. The rats were anesthetized with ketamine hydrochloride(125 mg/kg, i.p.) and a catheter was filled with saline and inserted into a carotid artery and carotid vein. The surgical area was sutured with a metal clip. The rats were relaxed at least 3 hours and the catheter in the carotid artery was adapted to an isotec pressure transducer to determine their blood pressure and heart rate with a physiograph(Linearcorder WR3310). After the blood pressure was stabilized, the test compound was administered intravenously or orally. For intravenous administration, the administered volume and washing volume were 1.0 ml/Kg and 0.2 ml, respectively. The blood pressure and heart rate were measured in regular intervals up to 24 hours after the administration of the test compound and compared with those measured after the administration of the control compound Losartan.
(§3) The test compound was dissolved in 0.05N KOH for intravenous administration and suspended in Tween 80 for oral administration.

Assay [2] deals with renal hypertensive rat. Description: Blood pressure lowering effect on oral administration to rats at several doses. Type of assay: in vivo, male Sprague-Dawley rats.
Text: as §1, §2, §3
(iii) Blood pressure lowering effect The present compounds, Losartan(Dup 753) and the Merck compound were administrated orally to rats in 10, 3, 1, 0.3 and 0.1 mg/kg under the same condition as in (ii) and the blood pressure lowering effect was determined.

Another assay relates to unanesthetized dogs. Description: Blood pressure lowering effect in unanesthetized dogs (furosemide treated). It counts as in vivo, dog. The arrangement: Maximum blood pressure lowering effect in a dog: unit not given here. As to conditions: oral; for Blood pressure variation with time: 3 mg. Here is the method:
A number of dogs were fed freely in a feeding room and those weighing 7 to 12 kg in good health were selected regardless of their gender.
The test dogs were anesthetized with 30 mg/kg of pentobarbital sodium by intravenous injection and the left femoral artery and femoral vein were separated carefully. Silicone catheter, specially prepared and filled with saline treated with heparin(1,000 IU/ml), was cannulated into the blood vessels. After the surgery, the dogs were constrained to measure their blood pressure continuously with Gould 2000 physiograph adapted to a Grass P23 XL pressure transducer; and their heart rates were monitored with ECG/Biotacho amplifier. The dogs were tested at least 2 days after the surgery.
10 mg/kg of furosemide was injected intramuscularly 18 hours(in case of intravenous injection, 2 hours) before the beginning of the test (administration of the test compound) to improve the activity of renin in blood plasma. After the injection of furosemide, neither food nor water was provided. The test compound was suspended in Tween 80 and administered in an amount of 20 mg/kg orally. The blood pressure and heart rate were measured up to 8 hours after the administration of each test compound.
The maximum blood pressure lowering effect of the present compounds and the control compounds were determined in different amounts of administration using the same method as […]

In the case of `CCCCc1nc(Cl)c(CO)n1Cc1ccc(-c2ccccc2-c2nn[nH]n2)cc1` [Losartan(Dup 753), Losartan, reference compound], the “Binding Inhibition(%)” value in the assay with angiotensin II receptor is on record as 48.0%. For the same molecule, in the assay on renal hypertensive rat [1], the change in vivo at 3 mg was -30%. Besides, the “blood pressure lowering effect” value in the assay on renal hypertensive rat [2] (3 mg/kg) turned out to be 30%; with renal hypertensive rat [2] (10 mg/kg) it was 46%. In addition, the figures for the “Maximum blood pressure lowering effect in a dog” value in the assay with unanesthetized dogs (3 mg/kg) and in the assay on unanesthetized dogs (10 mg/kg) were 13 and 23, respectively. The “Blood pressure variation with time” value with unanesthetized dogs (dogs, 0.5 hr) is listed as -11.0%; in the assay with unanesthetized dogs (dogs, 1 hr), -12.3%; in the assay on unanesthetized dogs (dogs, 2 hr), -12.8%; with unanesthetized dogs (dogs, 4 hr), -9.9%; in the assay on unanesthetized dogs (dogs, 6 hr), -10.1%; with unanesthetized dogs (dogs, 8 hr) it was -8.2%. In addition, the “maximum blood pressure lowering effect lasted up to (after the administration)” value in the assay with unanesthetized dogs (dogs, as shown in Table 3) was “up to 2 hours”.

With `CCCCc1nc2cc(CCC(=O)OCC)c(C(OC)OC)nc2n1Cc1ccc(-c2ccccc2-c2nn[nH]n2)cc1` [Example 13, 2-butyl-5-dimethoxymethyl-6-[2-(ethoxycarbonyl)-ethyl-1-yl]-3-[2'-(1H-tetrazol-5-yl)-biphenyl-4-ylmethyl]-3H-imidazo[4,5-b]pyridine], in the assay on angiotensin II receptor, the “Binding Inhibition(%)” value was 95.0%. Further, the change in vivo at 3 mg in the assay with renal hypertensive rat [1] is -32%.

On to `CCCCc1nc2cc(-c3ccccc3OC)c(C(OC)OC)nc2n1Cc1ccc(-c2ccccc2-c2nn[nH]n2)cc1` [Example 20, 2-butyl-5-dimethoxymethyl-6-(2-methoxyphenyl-1-yl)-3-[2'-(1H-tetrazol-5-yl)-biphenyl-4-ylmethyl]-3H-imidazo[4,5-b]pyridine], for which, in the assay with angiotensin II receptor, the “Binding Inhibition(%)” value is reported as 81.9%. Moreover, in the assay with renal hypertensive rat [1], the change in vivo at 3 mg is -25%.

In the case of `CCCCc1nc2cc(-c3ccc(OC)cc3)c(C(OC)OC)nc2n1Cc1ccc(-c2ccccc2-c2nn[nH]n2)cc1` [Example 6, 2-butyl-5-dimethoxymethyl-6-(4-methoxyphenyl-1-yl)-3-[2'-(1H-tetrazol-5-yl)-biphenyl-4-ylmethyl]-3H-imidazo[4,5-b]pyridine], in the assay with angiotensin II receptor, the “Binding Inhibition(%)” value is reported as 49.0%. In addition, in the assay on renal hypertensive rat [1], the change in vivo at 3 mg was -25%.

Take `CCCCc1nc2cc(-c3ccncc3)c(C(OC)OC)nc2n1Cc1ccc(-c2ccccc2-c2nnn[nH]2)cc1` [Example 23, 2-butyl-5-dimethoxymethyl-6-(pyridin-4-yl)-3-[2'-(1H-tetrazol-5-yl)-biphenyl-4-ylmethyl]-3H-imidazo[4,5-b]pyridine]: in the assay on angiotensin II receptor, the “Binding Inhibition(%)” value is 92.9%. Further, in the assay with renal hypertensive rat [1], the change in vivo at 3 mg is -33%.

For the molecule `CCCCc1nc2cc(-c3ccccc3[N+](=O)[O-])c(C(OC)OC)nc2n1Cc1ccc(-c2ccccc2-c2nn[nH]n2)cc1` [Example 19, 2-butyl-5-dimethoxymethyl-6-(2-nitrophenyl-1-yl)-3-[2'-(1H-tetrazol-5-yl)-biphenyl-4-ylmethyl]-3H-imidazo[4,5-b]pyridine], the “Binding Inhibition(%)” value in the assay on angiotensin II receptor came out at 70.9%. Also, the change in vivo at 3 mg in the assay with renal hypertensive rat [1] is -29%.

As for `CCCCc1nc2cc(-c3ccccc3)c(C(OC)OC)nc2n1Cc1ccc(-c2ccccc2-c2nnn[nH]2)cc1` [Example 1, 2-butyl-5-dimethoxymethyl-6-phenyl-3-[2'-(1H-tetrazol-5-yl)biphenyl-4-ylmethyl]-3H-imidazo[4,5-b]pyridine], the “Binding Inhibition(%)” value with angiotensin II receptor was determined as 77.8%. Moreover, the change in vivo at 3 mg in the assay on renal hypertensive rat [1] was -40%. The results for the “blood pressure lowering effect” value in the assay with renal hypertensive rat [2] (1 mg/kg) and in the assay on renal hypertensive rat [2] (3 mg/kg) were 25% and 38%, respectively. The “Maximum blood pressure lowering effect in a dog” value with unanesthetized dogs (1 mg/kg) came out at 15; with unanesthetized dogs (3 mg/kg), 35; with unanesthetized dogs (10 mg/kg) it was 41. Further, the “Blood pressure variation with time” value is reported as -31.3% in the assay on unanesthetized dogs (dogs, 0.5 hr); -32.6% in the assay with unanesthetized dogs (dogs, 1 hr); -34.0% with unanesthetized dogs (dogs, 2 hr); -33.0% with unanesthetized dogs (dogs, 4 hr); -30.1% in the assay with unanesthetized dogs (dogs, 6 hr); -25.9% with unanesthetized dogs (dogs, 8 hr).

Turning to `CCCCc1nc2cc(-c3ccccc3)c(C3OCCCO3)nc2n1Cc1ccc(-c2ccccc2-c2nn[nH]n2)cc1` [Example 4, 2-butyl-5-(1,3-dioxan-2-yl)-6-phenyl-3-[2'-(1-tetrazol-5-yl)-biphenyl-4-ylmethyl]-3H-imidazo[4,5-b]pyridine], the “Binding Inhibition(%)” value in the assay with angiotensin II receptor is 60.9%. The change in vivo at 3 mg in the assay with renal hypertensive rat [1] was -33%.
